Assay results from patent publication US7148204B2, “Antisense modulation of bcl-x expression” (Isis Pharmaceuticala, Inc., priority 1998, dated 2006).
In the oligonucleotide strings, read from the 5' end, every base follows the letter of its sugar. An asterisk marks phosphorothioate; unmarked linkages are phosphodiester. Other units and linkages are bracketed, terminal groups are in braces. A string of capitals states the bases alone. e = 2'-O-(2-methoxyethyl) (MOE); [5mC] = 5-methylcytosine; d = 2'-deoxy (DNA)

Each substance was assayed on human bcl-x mRNA (assay: Northern blot analysis of bcl-x mRNA levels in A549 cells). Settings: 200 nM chimeric oligonucleotide.
Type: cell-based
Procedure: Eighteen hours after antisense treatment, cell monolayers were washed twice with cold PBS and lysed in 1 mL RNAZOL™ (TEL-TEST “B” Inc., Friendswood, Tex.). Total RNA was prepared following manufacturer's recommended protocols. Twenty micrograms of total RNA was fractionated by electrophoresis through 1.2% agarose gels containing 1.1% formaldehyde using a MOPS buffer system (AMRESCO, Inc. Solon, Ohio). RNA was transferred from the gel to HYBOND™-N+ nylon membranes (Amersham Pharmacia Biotech, Piscataway, N.J.) by overnight capillary transfer using a Northern/Southern Transfer buffer system (TEL-TEST “B” Inc., Friendswood, Tex.). RNA transfer was confirmed by UV visualization. Membranes were fixed by UV cross-linking using a STRATALINKER™ UV Crosslinker 2400 (Stratagene, Inc, La Jolla, Calif.).
Membranes were probed using QUICKHYB™ hybridization solution (Stratagene, La Jolla, Calif.) using manufacturer's recommendations for stringent conditions with an 822-base pair bcl-x specific probe prepared by PCR from bases 33–855 of human bcl-xl sequence (Boise et al., 1993, Cell 74:597–608; GenBank accession no. L20121). To normalize for variations in loading and transfer efficiency membranes were stripped and probed for glyceraldehyde-3-phosphate dehydrogenase (GAPDH) RNA (Clontech, Palo Alto, Calif.). Hybridized membranes were visualized and quantitated using a PHOSPHORIMAGER™ and IMAGEQUANT™ Software V3.3 (Molecular Dynamics, Sunnyvale, Calif.). Data was normalized to GAPDH levels in untreated controls.
Oligonucleotides were tested by Northern blot analysis as described in Example 14. Oligonucleotides were tested in A549 cells at a concentration of 400 nM. The results are Table 2:
Oligonucleotides were tested by Northern blot analysis as described in Example 14. Chimeric oligonucleotides were in A549 cells at a concentration of 200 nM. Where present, “N.D.” indicates “not determined”.

Substance	% CONTROL (bcl-x mRNA levels) [%]	% INHIB (bcl-x mRNA levels) [%]
15998 (antisense eT*eA*eA*eT*eA*dG*dG*dG*dA*dT*dG*dG*dG*dC*dT*e[5mC]*eA*eA*e[5mC]*e[5mC]) [compound 15998]	13	87
15999 (antisense eT*e[5mC]*e[5mC]*e[5mC]*eG*dG*dT*dT*dG*dC*dT*dC*dT*dG*dA*eG*eA*e[5mC]*eA*eT) [compound 15999]	4	96
16000 (antisense eG*eG*eG*e[5mC]*e[5mC]*dT*dC*dA*dG*dT*dC*dC*dT*dG*dT*eT*e[5mC]*eT*e[5mC]*eT) [compound 16000]	4	96
16001 (antisense eT*e[5mC]*e[5mC]*eA*eT*dC*dT*dC*dC*dG*dA*dT*dT*dC*dA*eG*eT*e[5mC]*e[5mC]*e[5mC]) [compound 16001]	17	83
16002 (antisense eA*eG*eG*eT*eG*dC*dC*dA*dG*dG*dA*dT*dG*dG*dG*eT*eT*eG*e[5mC]*e[5mC]) [compound 16002]	8	92
16003 (antisense eA*eG*eT*eG*eG*dC*dT*dC*dC*dA*dT*dT*dC*dA*dC*e[5mC]*eG*e[5mC]*eG*eG) [compound 16003]	12	88
16004 (antisense e[5mC]*eT*eT*eG*e[5mC]*dT*dT*dT*dA*dC*dT*dG*dC*dT*dG*e[5mC]*e[5mC]*eA*eT*eG) [compound 16004]	5	95
16005 (antisense eG*e[5mC]*e[5mC]*eG*eG*dT*dA*dC*dC*dG*dC*dA*dG*dT*dT*e[5mC]*eA*eA*eA*e[5mC]) [compound 16005]	17	83
16006 (antisense e[5mC]*eT*eG*eT*eT*dC*dA*dA*dA*dG*dC*dT*dC*dT*dG*eA*eT*eA*eT*eG) [compound 16006]	28	72
16007 (antisense eT*eA*e[5mC]*e[5mC]*e[5mC]*dC*dA*dT*dC*dC*dC*dG*dG*dA*dA*eG*eA*eG*eT*eT) [compound 16007]	31	69
16010 (antisense eT*e[5mC]*e[5mC]*eA*eA*dG*dC*dT*dG*dC*dG*dA*dT*dC*dC*eG*eA*e[5mC]*eT*e[5mC]) [compound 16010]	13	87
16011 (antisense e[5mC]*eT*eG*eG*eA*dT*dC*dC*dA*dA*dG*dG*dC*dT*dC*eT*eA*eG*eG*eT) [compound 16011]	31	69
16014 (antisense eA*eG*e[5mC]*eG*eT*dT*dC*dC*dT*dG*dG*dC*dC*dC*dT*eT*eT*e[5mC]*eG*eG) [compound 16014]	22	78
16015 (antisense eG*eT*e[5mC]*eA*eT*dG*dC*dC*dC*dG*dT*dC*dA*dG*dG*eA*eA*e[5mC]*e[5mC]*eA) [compound 16015]	12	88
16018 (antisense eG*eA*eG*eG*eG*dT*dA*dG*dA*dG*dT*dG*dG*dA*dT*eG*eG*eT*e[5mC]*eA) [compound 16018]	40	60
16019 (antisense eG*eG*eA*eG*eG*dA*dT*dG*dT*dG*dG*dT*dG*dG*dA*eG*e[5mC]*eA*eG*eA) [compound 16019]	40	60

Same assay, conditions: 400 nM oligonucleotide

Substance	% CONTROL (bcl-x mRNA levels) [%]	% INHIB (bcl-x mRNA levels) [%]
11219 (antisense dC*dG*dG*dG*dT*dT*dC*dT*dC*dC*dT*dG*dG*dT*dG*dG*dC*dA*dA*dT) [compound 11219]	6	94
11220 (antisense dC*dA*dG*dT*dG*dT*dC*dT*dG*dG*dT*dC*dA*dT*dT*dT*dC*dC*dG*dA) [compound 11220]	12	88
11221 (antisense dA*dG*dC*dC*dC*dA*dG*dC*dA*dG*dA*dA*dC*dC*dA*dC*dG*dC*dC*dG) [compound 11221]	11	89
11222 (antisense dG*dT*dT*dG*dA*dA*dG*dC*dG*dT*dT*dC*dC*dT*dG*dG*dC*dC*dC*dT) [compound 11222]	35	65
11223 (antisense dC*dA*dG*dT*dG*dC*dC*dC*dC*dG*dC*dC*dG*dA*dA*dG*dG*dA*dG*dA) [compound 11223]	9	91
11224 (antisense dT*dC*dG*dC*dC*dT*dG*dC*dC*dT*dC*dC*dC*dT*dC*dA*dG*dC*dG*dC) [compound 11224]	6	94
11225 (antisense dC*dA*dG*dT*dG*dG*dC*dT*dC*dC*dA*dT*dT*dC*dA*dC*dC*dG*dC*dG) [compound 11225]	25	75
11226 (antisense dA*dT*dT*dC*dA*dG*dT*dC*dC*dC*dT*dT*dC*dT*dG*dG*dG*dG*dC*dC) [compound 11226]	34	66
11227 (antisense dA*dA*dA*dG*dT*dC*dA*dA*dC*dC*dA*dC*dC*dA*dG*dC*dT*dC*dC*dC) [compound 11227]	10	90
11228 (antisense dC*dC*dG*dG*dT*dT*dG*dC*dT*dC*dT*dG*dA*dG*dA*dC*dA*dT*dT*dT) [compound 11228]	31	69
11229 (antisense dA*dC*dC*dA*dG*dT*dC*dC*dA*dT*dT*dG*dT*dC*dC*dA*dA*dA*dA*dC) [compound 11229]	60	40
11230 (antisense dG*dA*dA*dG*dG*dG*dA*dG*dA*dG*dA*dA*dA*dG*dA*dG*dA*dT*dT*dC) [compound 11230]	135	–
11993 (antisense dT*dC*dA*dT*dT*dC*dA*dC*dT*dA*dC*dC*dT*dG*dT*dT*dC*dA*dA*dA) [compound 11993]	142	–

Same assay, conditions: dose-response, Northern blot

Substance	IC50 [nM]
11224 (antisense dT*dC*dG*dC*dC*dT*dG*dC*dC*dT*dC*dC*dC*dT*dC*dA*dG*dC*dG*dC) [compound 11224]	~175
CGGGTTCTCCTGGTGGCAAT (all phosphorothioate, sugars by position and methylation of C not given here; further chemistry not fully specified) [ISIS 11219]	~250

These substances were tested on bcl-xs/bcl-xl mRNA ratio (assay: RNase protection assay, bcl-xs/bcl-xl mRNA ratio in A549 cells). Settings: A549 cells, RPA, 200 nM; no oligo = 1.
Type: cell-based, human
Source text: The ribonuclease (RNase) protection assay is a sensitive and specific method for quantitating expression levels (Zinn, et al., Cell, 1983, 34:865–79). The method is based on the hybridization of a target RNA to an in vitro transcribed ^32P-labeled anti-sense RNA probe from a DNA template. RNase treatment follows, resulting in degradation of single-stranded RNA and excess probe. The probe and target RNA are resolved by denaturing polyacrylamide gel electrophoresis with the “protected” probe visualized using autoradiography or beta imaging equipment. Template sets can be purchased (PharMingen Inc., San Diego Calif.) which contain a series of biologically relevant templates, each of distinct length and each representing a sequence in a distinct mRNA species. Each template set is capable of detecting up to 11 unique gene messages in a single reaction mix in addition to one or more housekeeping genes, L32 and GAPDH, which serve as internal controls. These template sets allow for multiple determinations to be made from a single sample. Multi-probe RPA can be performed on total RNA preparations derived by standard methods, without further purification of poly-A+ RNA.
Oligonucleotides were evaluated for their respective effects on bcl-xs and bcl-xl mRNA levels along with total bcl-x mRNA levels, using the RIBOQUANT™ RNase protection kit (Pharmingen, San Diego Calif.). All assays were performed according to manufacturer's protocols. Briefly, multi-probe DNA template sets were used to generate antisense RNA transcripts radiolabeled with […]. The template set used for apoptosis genes was the human hAPO-2 set. These radiolabeled probes were hybridized overnight with typically 10 μg of total cellular RNA. The reaction mixture was then digested with single-strand RNases to generate the protected fragments which were electrophoresed through a 5% acrylamide/urea gel. Protected bands were visualized and quantitated using a PhosphorImager (Molecular Dynamics, Sunnyvale Calif.).
Human bcl-x has two forms, a long form known as bcl-xl and a short form known as bcl-xs. […] The protein of bcl-xl is similar in size and structure to bcl-2, and could inhibit cell death upon growth factor withdrawal. The protein of bcl-xs is 63 amino acids shorter than bcl-xl. It could inhibit the bcl-2 function, thus promoting programmed cell death (apoptosis). Oligonucleotides were evaluated for their respective effects on bcl-xs and bcl-xl mRNA levels along with total bcl-x mRNA levels, using the RIBOQUANT™ RNase protection kit (Pharmingen, San Diego Calif.). All assays were performed according to manufacturer's protocols.
These oligonucleotides were tested for their inhibitory effects on bcl-xl and bcl-xs mRNA levels in A549 cells, as detected by RPA analysis. Oligonucleotide concentration was 200 nM.

Substance	bcl-xs/bcl-xl Fold difference [fold]
TGGTTCTTACCCAGCCGCCG (all 2'-MOE, all phosphorothioate, methylation of C not given here) [ISIS 105751]	45
